Target: D2 receptor (Homo sapiens, UniProt P14416)
Assay: [3H]Thymidine uptake assay for D2 intrinsic activity
Type: cell-based
Conditions: test compound 1 μM, 1 μM Quinpirole = 100% intrinsic activity

Chain of D2 receptor (P14416 whole entry): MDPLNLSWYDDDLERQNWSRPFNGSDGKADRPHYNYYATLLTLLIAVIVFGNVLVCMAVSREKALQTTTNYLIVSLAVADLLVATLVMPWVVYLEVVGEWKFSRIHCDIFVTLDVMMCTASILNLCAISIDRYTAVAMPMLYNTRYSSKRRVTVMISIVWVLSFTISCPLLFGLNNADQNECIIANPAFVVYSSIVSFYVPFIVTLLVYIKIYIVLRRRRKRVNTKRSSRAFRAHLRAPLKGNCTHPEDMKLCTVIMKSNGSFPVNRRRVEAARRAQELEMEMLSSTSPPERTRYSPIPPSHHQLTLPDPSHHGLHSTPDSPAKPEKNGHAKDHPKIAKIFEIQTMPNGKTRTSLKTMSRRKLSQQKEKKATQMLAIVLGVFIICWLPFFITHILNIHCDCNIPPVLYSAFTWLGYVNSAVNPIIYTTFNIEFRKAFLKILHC

| Structure (SMILES) | Emax at 1 µM (Table 2) | Emax at 1 µM (Table 1) |
| --- | --- | --- |
| O=c1ccc2cnc(OCCCCN3CCN(c4cccc5cccnc45)CC3)nc2[nH]1 [Example G3′, 2-[4-(4-Quinolin-8-yl-piperazin-1-yl)-butoxy]-8H-pyrido[2,3-d]pyrimidin-7-one] | 28% |  |
| O=C1CCc2ccc(OCCCCN3CCN(c4cccc5c4CC(F)(F)C5)CC3)nc2N1 [Example A62, 7-{4-[4-(2,2-Difluoro-indan-4-yl)-piperazin-1-yl]-butoxy}-3,4-dihydro-1H-[1,8]naphthyridin-2-one] |  | 27% |
| O=C1CCc2ccc(CCCCCN3CCN(c4cccc5c4CCCC5)CC3)nc2N1 [Example C12, 7-{5-[4-(5,6,7.8-Tetrahydro-naphthalen-1-yl)-piperazin-1-yl]-pentyl}-3,4-dihydro-1H-[1,8]naphthyridin-2-one] |  | 12% |
| O=C1CCc2ccc(OCCCCN3CCN(c4ccccn4)CC3)nc2N1 [Example A43, 7-[4-(4-Pyridin-2-yl-piperazin-1-yl)-butoxy]-3,4-dihydro-1H-[1,8]naphthyridin-2-one] |  | 75% |
| O=c1ccc2ccc(OCCCCN3CCN(c4cccc5nonc45)CC3)nc2[nH]1 [Example B39′, 7-[4-(4-Benzo[1,2,5]oxadiazol-4-yl-piperazin-1-yl)-butoxy]-1H-[1,8]naphthyridin-2-one] | 29% |  |
| O=C1CCc2c(C(F)(F)F)cc(OCCCCN3CCN(c4cccc5c4CCCC5)CC3)nc2N1 [Example E15, 7-{4-[4-(5,6,7,8-Tetrahydro-naphthalen-1-yl)-piperazin-1-yl]-butoxy}-5-trifluoromethyl-3,4-dihydro-1H-[1,8]naphthyridin-2-one] |  | 20% |
| O=C1CCc2ccc(OCCCCN3CCN(c4ccccc4-c4ccccc4)CC3)nc2N1 [Example A11, 7-[4-(4-Biphenyl-2-yl-piperazin-1-yl)-butoxy]-3,4-dihydro-1H-[1,8]naphthyridin-2-one] |  | 6% |
| O=C1CCc2ccc(OCCCCN3CCN(c4cccc5ccoc45)CC3)nc2N1 [Example A23′, 7-[4-(4-Benzofuran-7-yl-piperazin-1-yl)-butoxy]-3,4-dihydro-1H-[1,8]naphthyridin-2-one] | 39% |  |
| O=C1CCc2c(C(F)(F)F)cc(OCCCCN3CCN(c4cccc5ccccc45)CC3)nc2N1 [Example E14, 7-[4-(4-Naphthalen-1-yl-piperazin-1-yl)-butoxy]-5-trifluoromethyl-3,4-dihydro-1H-[1,8]naphthyridin-2-one] |  | 36% |
| CC(C)(CCCN1CCN(c2cccc(Cl)c2Cl)CC1)Oc1ccc2c(n1)NC(=O)CC2 [Example C7, 7-{4-[4-(2,3-Dichloro-phenyl)-piperazin-1-yl]-1,1-dimethyl-butoxy}-3,4-dihydro-1H-[1,8]naphthyridin-2-one] |  | 46% |
| CC1(C)OC(=O)Nc2nc(CCCCCN3CCN(c4cccc(Cl)c4Cl)CC3)ccc21 [Example F9, 7-{5-[4-(2,3-Dichloro-phenyl)-piperazin-1-yl]-pentyl}-4,4-dimethyl-1,4-dihydro-pyrido[2,3-d][1,3]oxazin-2-one] |  | 11% |
| CC(=O)c1ccc(N2CCN(CCCCOc3ccc4ccc(=O)[nH]c4n3)CC2)c2ccccc12 [Example B65, 7-{4-[4-(4-Acetyl-naphthalen-1-yl)-piperazin-1-yl]-butoxy}-1H-[1,8]naphthyridin-2-one] |  | 10% |
| O=c1ccc2ccc(OCCCCN3CCN(c4cccc5c4OCCO5)CC3)nc2[nH]1 [Example B12′, 7-{4-[4-(2,3-Dihydro-benzo[1,4]dioxin-5-yl)-piperazin-1-yl]-butoxy}-1H-[1,8]naphthyridin-2-one] | 24% |  |
| O=C1CCc2cc(Cl)c(OCCCCN3CCN(c4cccc5ccccc45)CC3)nc2N1 [Example E6, 6-Chloro-7-[4-(4-naphthalen-1-yl-piperazin-1-yl)-butoxy]-3,4-dihydro-1H-[1,8]naphthyridin-2-one] |  | 32% |
| CC(=O)c1c(Cl)cccc1N1CCN(CCCCOc2ccc3ccc(=O)[nH]c3n2)CC1 [Example B3, 7-{4-[4-(2-Acetyl-3-chloro-phenyl)-piperazin-1-yl]-butoxy}-1H-[1,8]naphthyridin-2-one] |  | 8% |
| CC1(C)CC(=O)Nc2nc(OCCCCN3CCN(c4cccc5c4OCCO5)CC3)ccc21 [Example C2′, 7-{4-[4-(2,3-Dihydro-benzo[1,4]dioxin-5-yl)-piperazin-1-yl]-butoxy}-4,4-dimethyl-3,4-dihydro-1H-[1,8]naphthyridin-2-one] | 22% |  |
| O=C1CCc2cc(F)c(OCCCCN3CCN(c4cccc5c4CCC5)CC3)nc2N1 [Example E5, 6-Fluoro-7-[4-(4-indan-4-yl-piperazin-1-yl)-butoxy]-3,4-dihydro-1H-[1,8]naphthyridin-2-one] |  | 21% |
| CC(=O)N1CCCc2c(N3CCN(CCCCOc4ccc5ccc(=O)[nH]c5n4)CC3)cccc21 [Example B27′, 7-{4-[4-(1-Acetyl-1,2,3,4-tetrahydro-quinolin-5-yl)-piperazin-1-yl]-butoxy}-1H-[1,8]naphthyridin-2-one] | 34% |  |
| CC(CCCN1CCN(c2cccc3ccccc23)CC1)Oc1ccc2c(n1)NC(=O)CC2 (stereo not shown) [Example C6, 7-[1-Methyl-4-(4-naphthalen-1-yl-piperazin-1-yl)-butoxy]-3,4-dihydro-1H-[1,8]naphthyridin-2-one] |  | 44% |

| Structure (SMILES) | Emax at 1 µM (Table 2) | Emax at 1 µM (Table 1) |
| --- | --- | --- |
| O=C1CCc2ccc(OCCCCN3CCN(c4ccccc4C(F)(F)F)CC3)nc2N1 [Example A37, 7-{4-[4-(2-Trifluoromethyl-phenyl)-piperazin-1-yl]-butoxy}-3,4-dihydro-1H-[1,8]naphthyridin-2-one] |  | 46% |
| Cn1c(=O)ccc2ccc(OCCCCN3CCN(c4cccc5ccccc45)CC3)nc21 [Example B68, 1-Methyl-7-[4-(4-naphthalen-1-yl-piperazin-1-yl)-butoxy]-1H-[1,8]naphthyridin-2-one] |  | 17% |
| Cc1c(F)ccc(N2CCN(CCCCCc3ccc4c(n3)NC(=O)CC4)CC2)c1Cl [Example C15, 7-{5-[4-(2-Chloro-4-fluoro-3-methyl-phenyl)-piperazin-1-yl]-pentyl}-3,4-dihydro-1H-[1,8]naphthyridin-2-one] |  | 8% |
| O=c1ccc2ccc(OCCCCN3CCN(c4cccc5c4OC4(CCCC4)CC5)CC3)nc2[nH]1 [Example B7′, 7-{4-[4-(3,4-Dihydrospiro[chromene-2,1′-cyclopentan]-8-yl)-piperazin-1-yl]-butoxy}-1H-[1,8]naphthyridin-2-one] | 48% |  |
| O=C1CCc2ccc(OCCCCN3CCN(c4ccc(F)cc4)CC3)nc2N1 [Example A40, 7-{4-[4-(4-Fluoro-phenyl)-piperazin-1-yl]-butoxy}-3,4-dihydro-1H-[1,8]naphthyridin-2-one] |  | 32% |
| O=c1ccc2ccc(OCCCCN3CCN(c4cccc(C(F)(F)F)c4Cl)CC3)nc2[nH]1 [Example B2, 7-{4-[4-(2-Chloro-3-trifluoromethyl-phenyl)-piperazin-1-yl]-butoxy}-1H-[1,8]naphthyridin-2-one] |  | 22% |
| O=c1ccc2ccc(OCCCCN3CCN(c4cccc5ccccc45)CC3)nc2[nH]1 [Example B47, 7-[4-(4-Naphthalen-1-yl-piperazin-1-yl)-butoxy]-1H-[1,8]naphthyridin-2-one] |  | 44% |
| O=c1ccc2ccc(OCCCN3CCN(c4cccc5ccccc45)CC3)nc2[nH]1 [Example C2, 7-[3-(4-Naphthalen-1-yl-piperazin-1-yl)-propoxy]-1H-[1,8]naphthyridin-2-one] |  | 24% |
| CCc1cccc(N2CCN(CCCCCc3ccc4c(n3)NC(=O)CC4)CC2)n1 [Example C17, 7-{5-[4-(6-Ethyl-pyridin-2-yl)-piperazin-1-yl]-pentyl}-3,4-dihydro-1H-[1,8]naphthyridin-2-one] |  | 21% |
| O=C1CCc2ccc(OCCCN3CCN(c4cccc5ccccc45)CC3)nc2N1 [Example C3, 7-[3-(4-Naphthalen-1-yl-piperazin-1-yl)-propoxy]-3,4-dihydro-1H-[1,8]naphthyridin-2-one] |  | 22% |
| N#Cc1ccc2cccc(N3CCN(CCCCOc4ccc5c(n4)NC(=O)CC5)CC3)c2c1 [Example A83, 8-{4-[4-(7-Oxo-5,6,7,8-tetrahydro-[1,8]naphthyridin-2-yloxy)-butyl]-piperazin-1-yl}-naphthalene-2-carbonitrile] |  | 36% |
| O=C1CCc2cnc(OCCCCN3CCN(c4cccc5c4OCCC5)CC3)cc2N1 [Example H1′, 7-[4-(4-Chroman-8-yl-piperazin-1-yl)-butoxy]-3,4-dihydro-1H-[1,6]naphthyridin-2-one] | 22% |  |
| CC1(C)CC(=O)Nc2nc(OCCCCN3CCN(c4cccc5c4CCC5)CC3)ccc21 [Example D19, 7-[4-(4-Indan-4-yl-piperazin-1-yl)-butoxy]-4,4-dimethyl-3,4-dihydro-1H-[1,8]naphthyridin-2-one] |  | 39% |
| O=c1ccc2cnc(OCCCCN3CCN(c4cccc5c4OCCO5)CC3)nc2[nH]1 [Example G1′, 2-{4-[4-(2,3-Dihydro-benzo[1,4]dioxin-5-yl)-piperazin-1-yl]-butoxy}-8H-pyrido[2,3-d]pyrimidin-7-one] | 20% |  |
| O=c1ccc2ccc(OCCN3CCN(c4cccc(Cl)c4Cl)CC3)nc2[nH]1 [Example C4, 7-{2-[4-(2,3-Dichloro-phenyl)-piperazin-1-yl]-ethoxy}-1H-[1,8]naphthyridin-2-one] |  | 2% |
| COc1ccc2cccc(N3CCN(CCCCOc4ccc5c(n4)NC(=O)CC5)CC3)c2c1 [Example A73, 7-{4-[4-(7-Methoxy-naphthalen-1-yl)-piperazin-1-yl]-butoxy}-3,4-dihydro-1H-[1,8]naphthyridin-2-one] |  | 23% |
| O=c1ccc2ccc(OCCCCN3CCN(c4cccc(Cl)c4F)CC3)nc2[nH]1 [Example B22, 7-{4-[4-(3-Chloro-2-fluoro-phenyl)-piperazin-1-yl]-butoxy}-1H-[1,8]naphthyridin-2-one] |  | 36% |
| CC1(C)CC(=O)Nc2nc(OCCCCN3CCN(c4cccc5ccc(=O)[nH]c45)CC3)ccc21 [Example C4′, 4,4-Dimethyl-7-{4-[4-(2-oxo-1,2-dihydro-quinolin-8-yl)-piperazin-1-yl]-butoxy}-3,4-dihydro-1H-[1,8]naphthyridin-2-one] | 21% |  |

From patent US7160888B2, “[1,8]naphthyridin-2-ones and related compounds for the treatment of schizophrenia” (Warner Lambert Company LLC, priority 2003, dated 2007)
